Measured values as given in patent publication US10793550B2, “4-piperidin-n-(pyrimidin-4-yl)chroman-7-sulfonamide derivatives as sodium channel inhibitors” (GENENTECH, INC., priority 2017, dated 2020).

Key:
[1] = target: T1, hNav1.7 (Homo sapiens, UniProt Q15858); assay: Tritiated compound competitive binding to membranes from cells expressing hNav1.7 and the β1 subunit; conditions: competition with 100 pM [3H]compound, 18 h, room temperature; "this model or another representative model of inhibition"; read-out: Nav1.7 inhib. in vitro
T1 construct: expressed in transfected cells
Method: Example 5: Tritiated Compound Binding to Membranes Isolated from Cells that Heterologously Express hNav1.7 and the β1 Subunit
Preparation of membranes containing recombinantly expressed sodium channels: Frozen recombinant cell pellets were thawed on ice and diluted to 4 times the cell pellet weight with ice cold 50 mM Tris HCl, pH 7.4 buffer. The cell suspensions were homogenized on ice using a motorized glass dounce homogeniser. Homogenates were further diluted 8.4 times with ice cold 50 mM Tris HCl, pH 7.4 buffer and then centrifuged at 200×g at 4° C. for 15 min. The supernatants were collected and centrifuged at 10000×g at 4° C. for 50 min. The pellets were then re-suspended in 100 mM NaCl, 20 mM Tris HCl, pH 7.4 buffer containing 1% v/v protease inhibitors (Calbiochem) and re-homogenized on ice. The homogenized membranes were then processed through a syringe equipped with a 26 gauge needle. Protein concentrations were determined by Bradford Assay and the membranes were stored at −80° C.
Radioligand Binding Studies:
Saturation experiments. A competitive NaV1.7 inhibitor having a methyl group was tritiated. Three tritiums were incorporated in place of methyl hydrogens to generate [^3H]compound. Binding of this radioligand was performed in 5 mL borosilicate glass test tubes at room temperature. Binding was initiated by adding membranes to increasing concentrations of [^3H]compound in 100 mM NaCl, 20 mM Tris HCl, pH 7.4 buffer containing 0.01% w/v bovine serum albumin (BSA) for 18h. Non-specific binding was determined in the presence of 1 μM unlabeled compound. After 18h, the reactants were filtered through GF/C glass fiber filters presoaked in 0.5% w/v polyethylene imine. Filters were washed with 15 mL ice cold 100 mM NaCl, 20 mM Tris HCl, pH7.4 buffer containing 0.25% BSA to separate bound from free ligand. [^3H]compound bound to filters was quantified by liquid scintillation counting.
Competitive Binding Experiments:
Binding reactions were performed in 96-well polypropylene plates at room temperature for 18h. In 360 μL, membranes were incubated with 100 pM [^3H]compound and increasing concentrations of Test Compound. Non-specific binding was defined in the presence of 1 μM unlabeled compound. Reactions were transferred and filtered through 96-well glass fiber/C filter plates presoaked with 0.5% polyethylene imine. The filtered reactions were washed 5 times with 200 μL ice cold buffer containing 0.25% BSA. Bound radioactivity was determined by liquid scintillation counting.
Data Analysis: For saturation experiments, non-specific binding was subtracted from total binding to provide specific binding and these values were recalculated in terms of pmol ligand bound per mg protein. Saturation curves were constructed and dissociation constants were calculated using the single site ligand binding model: Beq=(Bmax*X)/(X+Kd), where Beq is the amount of ligand bound at equilibrium, Bmax is the maximum receptor density, Kd is the dissociation constant for the ligand, and X is the free ligand concentration. For competition studies percent inhibition was determined and IC50 values were calculated using a 4 parameter logistic model (% inhibition=(A+((B−A)/(1+((x/C)^D)))) using XLfit, where A and B are the maximal and minimum inhibition respectively, C is the IC50 concentration and D is the (Hill) slope.

[2] = In vivo pharmacokinetic experiments (compound clearance in rats); conditions: rat; male rats, IV administration, plasma clearance; read-out: PK (CLp, rat)
Method: Example 6: In Vivo Pharmacokinetic Experiments (Compound Clearance in Rats)
In vivo clearance (CLp) of certain compounds was measured in order to evaluate whether these compounds were likely to be good candidates for development. Male rats were housed at controlled temperature and humidity in an alternating 12 hr light/dark cycle with access to food and water ad libitum. All in vivo studies were performed in accordance with Institutional Animal Care and Use Committee guidelines and in harmony with the Guide for Laboratory Animal Care and Use. Rats were administered IV administration of compound. Plasma was harvested from blood samples that were collected from each animal at various timepoints following the administration of compound. Plasma concentration of compound was determined by mass spectrometer, and pharmacokinetic analysis was performed using non-compartmental method using Phoenix WinNonlin. Following oral administration, percent bioavailability was determined for each animal by dividing the dose-normalized area under the plasma concentration-time curve from time 0 to the last measured concentration (AUC0-tlast) obtained following each oral dose by the mean dose-normalized AUC0-tlast of the animals dosed by IV injection.
CLp values above about 40 mL/min/kg in Example 6 are considered to be highly cleared from the body after administration of a compound to a subject, meaning that the exposure may be insufficient to be treated for a disease or disorder as provided herein.

T1 sequence (Q15858 whole entry): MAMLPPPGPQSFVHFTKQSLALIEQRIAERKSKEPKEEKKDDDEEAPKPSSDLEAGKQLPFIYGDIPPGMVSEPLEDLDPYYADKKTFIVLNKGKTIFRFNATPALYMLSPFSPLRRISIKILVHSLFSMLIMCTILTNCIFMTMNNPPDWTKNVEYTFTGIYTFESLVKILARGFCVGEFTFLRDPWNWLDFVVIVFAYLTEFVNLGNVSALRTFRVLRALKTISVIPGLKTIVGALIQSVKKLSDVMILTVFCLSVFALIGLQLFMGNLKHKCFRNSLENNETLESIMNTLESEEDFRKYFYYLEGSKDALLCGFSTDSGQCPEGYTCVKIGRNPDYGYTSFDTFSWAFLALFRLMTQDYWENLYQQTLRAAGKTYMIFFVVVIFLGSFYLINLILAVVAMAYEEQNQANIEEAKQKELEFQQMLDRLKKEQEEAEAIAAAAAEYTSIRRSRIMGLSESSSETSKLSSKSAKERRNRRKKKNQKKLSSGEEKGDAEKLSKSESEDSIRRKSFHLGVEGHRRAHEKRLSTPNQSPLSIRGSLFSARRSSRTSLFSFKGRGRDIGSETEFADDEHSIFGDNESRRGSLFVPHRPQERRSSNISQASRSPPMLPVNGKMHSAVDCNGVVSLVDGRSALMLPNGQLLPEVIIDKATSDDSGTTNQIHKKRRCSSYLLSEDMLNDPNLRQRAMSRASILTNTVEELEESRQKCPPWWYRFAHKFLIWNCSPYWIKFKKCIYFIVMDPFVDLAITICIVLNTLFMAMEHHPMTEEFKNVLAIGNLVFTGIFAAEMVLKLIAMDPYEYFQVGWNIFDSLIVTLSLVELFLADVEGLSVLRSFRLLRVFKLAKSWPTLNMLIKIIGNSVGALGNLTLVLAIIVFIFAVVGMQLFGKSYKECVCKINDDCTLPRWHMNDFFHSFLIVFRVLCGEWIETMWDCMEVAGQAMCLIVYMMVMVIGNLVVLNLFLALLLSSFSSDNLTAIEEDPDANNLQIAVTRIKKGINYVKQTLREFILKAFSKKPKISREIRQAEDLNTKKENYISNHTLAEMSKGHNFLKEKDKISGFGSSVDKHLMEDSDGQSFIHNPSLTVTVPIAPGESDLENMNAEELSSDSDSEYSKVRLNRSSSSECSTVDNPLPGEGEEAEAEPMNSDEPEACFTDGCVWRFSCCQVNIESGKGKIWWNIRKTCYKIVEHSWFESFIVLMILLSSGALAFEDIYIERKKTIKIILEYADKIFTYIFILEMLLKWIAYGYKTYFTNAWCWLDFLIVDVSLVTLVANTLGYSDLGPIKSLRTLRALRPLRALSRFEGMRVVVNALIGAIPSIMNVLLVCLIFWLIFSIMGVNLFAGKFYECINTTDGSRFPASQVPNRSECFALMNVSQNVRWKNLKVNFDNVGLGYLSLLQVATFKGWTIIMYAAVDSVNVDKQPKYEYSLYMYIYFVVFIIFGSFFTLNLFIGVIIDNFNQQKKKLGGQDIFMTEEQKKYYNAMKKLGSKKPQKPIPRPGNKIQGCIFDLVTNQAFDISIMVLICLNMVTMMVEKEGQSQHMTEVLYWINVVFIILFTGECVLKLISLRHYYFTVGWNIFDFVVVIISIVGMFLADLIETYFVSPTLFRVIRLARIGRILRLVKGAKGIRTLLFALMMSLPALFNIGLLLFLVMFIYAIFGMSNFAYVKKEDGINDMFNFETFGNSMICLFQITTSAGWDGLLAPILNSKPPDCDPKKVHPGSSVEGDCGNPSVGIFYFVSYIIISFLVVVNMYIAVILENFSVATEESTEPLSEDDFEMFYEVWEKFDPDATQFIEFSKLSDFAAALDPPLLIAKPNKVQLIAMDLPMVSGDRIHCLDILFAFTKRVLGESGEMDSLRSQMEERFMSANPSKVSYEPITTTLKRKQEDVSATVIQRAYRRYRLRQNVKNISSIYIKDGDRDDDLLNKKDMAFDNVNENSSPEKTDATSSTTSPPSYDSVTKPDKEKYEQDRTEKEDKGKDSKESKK
T1 sequence (Q07699 19-218 partner): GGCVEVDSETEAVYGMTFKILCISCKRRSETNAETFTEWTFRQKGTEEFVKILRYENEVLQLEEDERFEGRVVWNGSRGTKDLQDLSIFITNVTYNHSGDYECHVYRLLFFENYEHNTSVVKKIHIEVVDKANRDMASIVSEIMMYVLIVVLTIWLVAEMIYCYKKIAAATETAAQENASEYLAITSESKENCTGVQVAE

| IC50 [1] [nM] | clearance [2] [mL/min/kg] | SMILES |
| --- | --- | --- |
| 2.6 | > 60 | O=S(=O)(Nc1ncns1)c1ccc2c(c1)OCC[C@@H]2N1CC[C@H](C(F)F)C[C@@H]1c1ccc(F)cc1 [E] |
| < 0.5 | > 60 | O=S(=O)(Nc1ncns1)c1cc2c(cc1F)[C@@H](N1CC[C@@H](C(F)(F)F)C[C@H]1c1ccccn1)CCO2 [B] |
|  | > 60 | N#C[C@H]1CCN([C@H]2CCOc3cc(S(=O)(=O)Nc4ncns4)ccc32)C(c2ccc(F)cc2)C1 (stereo partly drawn) [D] |
| 0.5 | < 30 | O=S(=O)(Nc1ccncn1)c1cc2c(cc1F)[C@@H](N1CC[C@@](O)(C(F)(F)F)C[C@H]1c1ccc(F)cc1)CCO2 [Example 2, (S)-6-fluoro-4-((2S,4S)-2-(4-fluorophenyl)-4-hydroxy-4-(trifluoromethyl)piperidin-1-yl)-N-(pyrimidin-4-yl)chroman-7-sulfonamide] |
|  | > 60 | O=S(=O)(Nc1ncns1)c1ccc2c(c1)OCC[C@@H]2N1CC[C@@H](C(F)(F)F)C[C@H]1c1ccc(F)cc1 [C] |
| 1.1 | > 60 | O=S(=O)(Nc1ncns1)c1ccc2c(c1)OCC[C@@H]2N1CC[C@@](O)(C(F)(F)F)C[C@H]1c1ccc(F)cc1 [A] |
| 8.8 | > 60 | CS(=O)(=O)[C@@H]1CCN([C@H]2CCOc3cc(S(=O)(=O)Nc4ncns4)ccc32)[C@H](c2ccc(F)cc2)C1 [F] |
| 2.2 | < 30 | O=S(=O)(Nc1ccncn1)c1cc2c(cc1F)[C@@H](N1CC[C@@H](OC(F)F)C[C@H]1c1ccc(F)cc1)CCO2 [Example 3, (S)-4-((2S,4R)-4-(difluoromethoxy)-2-(4-fluorophenyl)piperidin-1-yl)-6-fluoro-N-(pyrimidin-4-yl)chroman-7-sulfonamide] |
|  | < 30 | O=S(=O)(Nc1ccncn1)c1cc2c(cc1F)[C@@H](N1CC[C@@H](C(F)(F)F)C[C@H]1c1ccccn1)CCO2 [Example 1, (S)-6-fluoro-4-((2S,4R)-2-(pyridin-2-yl)-4-(trifluoromethyl)piperidin-1-yl)-N-(pyrimidin-4-yl)chroman-7-sulfonamide] |
| 3.4 | < 30 | C[C@@H]1C[C@H](c2cccc(C(F)(F)F)c2)CCN1[C@H]1CCOc2cc(S(=O)(=O)Nc3ccncn3)c(F)cc21 [Example 4, (S)-6-fluoro-4-((2R,4R)-2-methyl-4-(3-(trifluoromethyl)phenyl)piperidin-1-yl)-N-(pyrimidin-4-yl)chroman-7-sulfonamide] |
| 11 |  | N#C[C@H]1CCN([C@H]2CCOc3cc(S(=O)(=O)Nc4ncns4)ccc32)[C@@H](c2ccc(F)cc2)C1 [D] |
